Laboratory results: publication PMC6472032 (Marine Drugs, 2019)
Positions of bridges follow the written chain, without caps; N, C: chain ends. Non-standard residues stand in square brackets, D forms with d. Residues, ends and D or L forms follow the SMILES beside them.

What was measured:
rat α9α10 nAChR = rat α9α10 nAChR (Rattus norvegicus, UniProt P43144+Q9JLB5); test: cell-based; settings: for inhibition at 0.1 µM: read-out: inhibition of ACh-evoked current amplitude; for inhibition of ACh-evoked current amplitude: 0.1 µM
human α9α10 nAChR = human α9α10 nAChR (Homo sapiens, UniProt Q9GZZ6+Q9UGM1); test: cell-based; settings: for inhibition at 10 µM: read-out: inhibition of ACh-evoked currents
human α9α10 nAChR, sequence (Q9UGM1 26-479 limits assumed): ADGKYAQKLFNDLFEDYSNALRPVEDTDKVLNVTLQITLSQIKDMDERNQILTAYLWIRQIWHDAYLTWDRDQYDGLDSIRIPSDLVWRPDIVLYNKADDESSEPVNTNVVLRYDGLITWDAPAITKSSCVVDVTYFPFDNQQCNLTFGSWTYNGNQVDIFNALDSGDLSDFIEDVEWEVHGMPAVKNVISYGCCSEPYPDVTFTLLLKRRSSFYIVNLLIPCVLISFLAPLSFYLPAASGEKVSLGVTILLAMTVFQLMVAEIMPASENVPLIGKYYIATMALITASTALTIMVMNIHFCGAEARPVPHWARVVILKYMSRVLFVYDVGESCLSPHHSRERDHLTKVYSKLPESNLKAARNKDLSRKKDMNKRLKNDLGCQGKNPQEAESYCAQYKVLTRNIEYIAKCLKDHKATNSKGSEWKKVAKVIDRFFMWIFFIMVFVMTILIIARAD
human α9α10 nAChR, sequence (Q9GZZ6 25-450 limits assumed): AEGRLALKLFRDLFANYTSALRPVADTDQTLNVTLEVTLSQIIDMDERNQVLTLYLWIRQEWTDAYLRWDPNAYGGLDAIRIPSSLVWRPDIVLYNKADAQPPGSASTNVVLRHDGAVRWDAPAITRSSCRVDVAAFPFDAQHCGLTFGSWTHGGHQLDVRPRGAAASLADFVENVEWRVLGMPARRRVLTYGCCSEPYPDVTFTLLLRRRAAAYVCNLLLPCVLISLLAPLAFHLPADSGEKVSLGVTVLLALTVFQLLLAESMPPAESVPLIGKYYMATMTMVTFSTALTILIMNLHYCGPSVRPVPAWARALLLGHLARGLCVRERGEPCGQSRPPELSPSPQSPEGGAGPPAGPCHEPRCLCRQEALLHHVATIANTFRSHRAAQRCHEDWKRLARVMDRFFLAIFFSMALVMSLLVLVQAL

rat α6/α3β4 nAChR = rat α6/α3β4 nAChR (Rattus norvegicus, UniProt P04757+P12392+P43143); assay type: cell-based
rat α6/α3β4 nAChR, sequence (P04757 whole entry, looked up): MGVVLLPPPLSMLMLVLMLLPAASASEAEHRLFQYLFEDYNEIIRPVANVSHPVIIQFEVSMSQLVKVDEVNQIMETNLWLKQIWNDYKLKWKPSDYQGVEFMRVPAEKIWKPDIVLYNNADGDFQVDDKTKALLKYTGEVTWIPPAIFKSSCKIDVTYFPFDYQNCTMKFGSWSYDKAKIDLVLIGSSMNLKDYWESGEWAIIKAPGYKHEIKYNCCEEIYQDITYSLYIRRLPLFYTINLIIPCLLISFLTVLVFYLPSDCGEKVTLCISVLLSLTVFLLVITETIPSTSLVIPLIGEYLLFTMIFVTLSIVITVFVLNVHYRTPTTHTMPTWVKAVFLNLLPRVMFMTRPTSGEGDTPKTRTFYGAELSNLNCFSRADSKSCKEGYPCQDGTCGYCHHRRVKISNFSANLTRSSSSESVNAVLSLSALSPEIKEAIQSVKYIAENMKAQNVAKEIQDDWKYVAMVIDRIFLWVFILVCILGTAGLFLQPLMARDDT
rat α6/α3β4 nAChR, sequence (P12392 whole entry, looked up): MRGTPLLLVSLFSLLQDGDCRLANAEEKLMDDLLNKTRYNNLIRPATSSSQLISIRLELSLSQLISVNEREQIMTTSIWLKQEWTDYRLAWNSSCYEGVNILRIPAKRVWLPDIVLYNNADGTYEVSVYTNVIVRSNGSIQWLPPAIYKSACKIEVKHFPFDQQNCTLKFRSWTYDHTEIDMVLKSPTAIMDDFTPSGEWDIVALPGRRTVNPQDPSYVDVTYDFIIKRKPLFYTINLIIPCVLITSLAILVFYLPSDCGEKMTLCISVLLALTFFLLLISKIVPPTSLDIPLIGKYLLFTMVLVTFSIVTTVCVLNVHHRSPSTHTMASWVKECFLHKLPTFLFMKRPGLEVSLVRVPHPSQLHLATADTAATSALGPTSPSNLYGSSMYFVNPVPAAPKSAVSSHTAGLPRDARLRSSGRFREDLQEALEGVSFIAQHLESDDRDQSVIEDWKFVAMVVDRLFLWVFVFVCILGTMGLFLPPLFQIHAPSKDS
rat α6/α3β4 nAChR, sequence (P43143 whole entry, looked up): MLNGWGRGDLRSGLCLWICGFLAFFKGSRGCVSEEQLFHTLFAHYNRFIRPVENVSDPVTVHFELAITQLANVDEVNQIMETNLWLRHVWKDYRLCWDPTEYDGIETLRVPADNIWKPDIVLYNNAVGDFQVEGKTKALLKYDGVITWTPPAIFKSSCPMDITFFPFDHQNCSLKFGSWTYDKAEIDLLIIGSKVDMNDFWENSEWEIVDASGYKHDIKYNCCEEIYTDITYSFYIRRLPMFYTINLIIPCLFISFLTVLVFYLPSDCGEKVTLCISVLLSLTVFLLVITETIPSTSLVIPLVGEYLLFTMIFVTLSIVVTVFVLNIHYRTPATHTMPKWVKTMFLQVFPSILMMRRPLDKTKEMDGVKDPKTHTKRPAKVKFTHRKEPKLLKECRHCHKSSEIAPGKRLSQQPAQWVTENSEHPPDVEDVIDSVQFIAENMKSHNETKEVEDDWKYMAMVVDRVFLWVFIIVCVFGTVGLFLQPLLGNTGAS

rat α3β2 nAChR = rat α3β2 nAChR (Rattus norvegicus, UniProt P04757+P12390); assay type: cell-based
rat α4β2 nAChR = rat α4β2 nAChR (Rattus norvegicus, UniProt P09483+P12390); assay type: cell-based
rat α4β2 nAChR, sequence (P09483 31-630 limits assumed): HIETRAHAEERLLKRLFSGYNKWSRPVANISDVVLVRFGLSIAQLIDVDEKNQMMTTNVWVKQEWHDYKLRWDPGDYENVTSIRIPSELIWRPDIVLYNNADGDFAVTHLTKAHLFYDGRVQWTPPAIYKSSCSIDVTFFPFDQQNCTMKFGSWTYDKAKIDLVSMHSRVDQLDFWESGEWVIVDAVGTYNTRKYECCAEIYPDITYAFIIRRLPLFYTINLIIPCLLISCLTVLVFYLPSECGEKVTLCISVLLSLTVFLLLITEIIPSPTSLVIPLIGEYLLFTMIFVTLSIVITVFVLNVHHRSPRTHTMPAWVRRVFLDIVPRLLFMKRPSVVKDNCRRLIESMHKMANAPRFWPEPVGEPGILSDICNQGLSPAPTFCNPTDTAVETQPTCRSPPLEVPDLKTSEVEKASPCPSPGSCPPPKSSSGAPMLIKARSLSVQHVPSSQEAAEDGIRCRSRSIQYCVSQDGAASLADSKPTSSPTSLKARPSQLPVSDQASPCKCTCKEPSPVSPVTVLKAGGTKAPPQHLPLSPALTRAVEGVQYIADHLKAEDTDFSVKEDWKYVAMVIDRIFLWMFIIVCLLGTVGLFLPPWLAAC
rat α4β2 nAChR, sequence (P12390 25-500 limits assumed): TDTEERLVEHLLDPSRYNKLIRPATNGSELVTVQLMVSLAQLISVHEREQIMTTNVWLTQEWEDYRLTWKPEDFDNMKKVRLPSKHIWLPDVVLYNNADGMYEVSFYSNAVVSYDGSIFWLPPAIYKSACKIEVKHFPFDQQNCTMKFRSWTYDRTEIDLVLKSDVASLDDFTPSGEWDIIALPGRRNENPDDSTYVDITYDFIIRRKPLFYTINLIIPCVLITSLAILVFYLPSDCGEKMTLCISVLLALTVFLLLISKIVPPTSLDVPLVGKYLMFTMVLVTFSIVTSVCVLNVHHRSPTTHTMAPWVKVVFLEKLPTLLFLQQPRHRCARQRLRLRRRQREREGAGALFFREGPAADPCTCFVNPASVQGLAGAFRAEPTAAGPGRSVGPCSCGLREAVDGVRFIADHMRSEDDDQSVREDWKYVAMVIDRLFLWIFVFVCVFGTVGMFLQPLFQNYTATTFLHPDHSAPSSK

rat α4β4 nAChR = rat α4β4 nAChR (Rattus norvegicus, UniProt P09483+P12392); assay type: cell-based
rat α4β4 nAChR, sequence (P09483 31-630 limits assumed): as the sequence (P09483 31-630 limits assumed) above
rat α4β4 nAChR, sequence (P12392 21-495 limits assumed): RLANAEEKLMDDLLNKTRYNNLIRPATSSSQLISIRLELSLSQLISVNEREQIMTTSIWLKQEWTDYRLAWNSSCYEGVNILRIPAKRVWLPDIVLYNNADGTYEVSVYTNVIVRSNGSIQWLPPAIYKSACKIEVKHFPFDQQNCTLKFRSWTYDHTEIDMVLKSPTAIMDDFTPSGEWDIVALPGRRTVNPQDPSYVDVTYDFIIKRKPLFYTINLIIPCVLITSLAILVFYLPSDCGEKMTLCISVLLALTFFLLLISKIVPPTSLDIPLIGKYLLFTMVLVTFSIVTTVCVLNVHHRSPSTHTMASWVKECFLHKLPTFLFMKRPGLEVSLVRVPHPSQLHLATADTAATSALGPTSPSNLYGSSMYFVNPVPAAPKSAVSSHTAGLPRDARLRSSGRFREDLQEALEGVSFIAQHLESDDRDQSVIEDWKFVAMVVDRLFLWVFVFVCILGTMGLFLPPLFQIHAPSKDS

rat α2β4 nAChR = rat α2β4 nAChR (Rattus norvegicus, UniProt P12389+P12392); assay type: cell-based
rat α2β4 nAChR, sequence (P12389 28-511 limits assumed): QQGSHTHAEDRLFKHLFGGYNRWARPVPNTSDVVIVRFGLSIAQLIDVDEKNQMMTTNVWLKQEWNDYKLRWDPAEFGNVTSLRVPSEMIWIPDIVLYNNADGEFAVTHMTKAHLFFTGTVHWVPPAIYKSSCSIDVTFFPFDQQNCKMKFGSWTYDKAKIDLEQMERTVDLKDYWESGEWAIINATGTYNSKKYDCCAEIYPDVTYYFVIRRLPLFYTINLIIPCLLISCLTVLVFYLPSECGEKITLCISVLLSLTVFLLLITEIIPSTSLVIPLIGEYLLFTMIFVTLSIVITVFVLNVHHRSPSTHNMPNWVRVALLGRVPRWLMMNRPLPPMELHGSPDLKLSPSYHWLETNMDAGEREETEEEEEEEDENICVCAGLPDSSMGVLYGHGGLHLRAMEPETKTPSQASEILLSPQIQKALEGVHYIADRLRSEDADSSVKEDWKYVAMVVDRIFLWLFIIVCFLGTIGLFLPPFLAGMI
rat α2β4 nAChR, sequence (P12392 21-495 limits assumed): as the sequence (P12392 21-495 limits assumed) above

Row | SMILES | inhibition at 0.1 µM (rat α9α10 nAChR) | activity at a concentration of 10 μM (rat α9α10 nAChR) | activity against rat α6/α3β4 nAChR (rat α6/α3β4 nAChR) | activity against rat α3β2 nAChR (rat α3β2 nAChR) | activity against rat α4β2 nAChR (rat α4β2 nAChR) | inhibition at 10 µM (human α9α10 nAChR) | activity against rat α4β4 nAChR (rat α4β4 nAChR) | activity against rat α2β4 nAChR (rat α2β4 nAChR) | other results
1 | C[C@@H](N)C(=O)N[C@H]1CSSC[C@@H]2NC(=O)[C@H](CCCNC(=N)N)NC(=O)[C@@H]3CCCN3C(=O)[C@H](CC(=O)O)NC(=O)[C@H](CO)NC(=O)[C@H](CSSC[C@@H](C(=O)N[C@@H](CCCNC(=N)N)C(=O)O)NC(=O)[C@H](CCCNC(=N)N)NC(=O)[C@H](Cc3ccc(O)cc3)NC(=O)[C@H](CCCNC(=N)N)NC2=O)NC1=O [Compound 1] (H-[dA]CCSDPRCRYRCR-OH; disulfide 2-8, 3-12) | 70.6 ± 2% |  |  |  |  |  |  |  | IC50 (rat α9α10 nAChR): 0.0411 µM; IC50 (human α9α10 nAChR): > 10 µM
2 | N=C(N)NCCC[C@H](NC(=O)[C@@H]1CSSC[C@H]2NC(=O)[C@@H](NC(=O)CN)CSSC[C@H](NC(=O)[C@H](CCCNC(=N)N)NC(=O)[C@@H]3CCCN3C(=O)[C@H](CC(=O)O)NC(=O)[C@H](CO)NC2=O)C(=O)N[C@@H](CCCNC(=N)N)C(=O)N[C@@H](Cc2ccc(O)cc2)C(=O)N[C@@H](CCCNC(=N)N)C(=O)N1)C(=O)O [Compound 3] | 78.7 ± 2% |  |  |  |  |  |  |  | 
3 | N=C(N)NCCC[C@H](NC(=O)[C@@H]1CSSC[C@@H]2NC(=O)[C@@H](NC(=O)CN)CSSC[C@H](NC(=O)[C@H](CCCNC(=N)N)NC(=O)[C@@H]3CCCN3C(=O)[C@H](CC(=O)O)NC(=O)[C@@H](CO)NC2=O)C(=O)N[C@@H](CCCNC(=N)N)C(=O)N[C@@H](Cc2ccc(O)cc2)C(=O)N[C@@H](CCCNC(=N)N)C(=O)N1)C(=O)O [Compound 4] |  | not active |  |  |  |  |  |  | 
4 | N=C(N)NCCC[C@H](NC(=O)[C@@H]1CSSC[C@@H]2NC(=O)[C@@H](NC(=O)CN)CSSC[C@H](NC(=O)[C@H](CCCNC(=N)N)NC(=O)[C@@H]3CCCN3C(=O)[C@@H](CC(=O)O)NC(=O)[C@H](CO)NC2=O)C(=O)N[C@@H](CCCNC(=N)N)C(=O)N[C@@H](Cc2ccc(O)cc2)C(=O)N[C@@H](CCCNC(=N)N)C(=O)N1)C(=O)O [Compound 5] |  | not active |  |  |  |  |  |  | 
5 | N=C(N)NCCC[C@H](NC(=O)[C@@H]1CSSC[C@@H]2NC(=O)[C@@H](NC(=O)CN)CSSC[C@H](NC(=O)[C@H](CCCNC(=N)N)NC(=O)[C@H]3CCCN3C(=O)[C@H](CC(=O)O)NC(=O)[C@H](CO)NC2=O)C(=O)N[C@@H](CCCNC(=N)N)C(=O)N[C@@H](Cc2ccc(O)cc2)C(=O)N[C@@H](CCCNC(=N)N)C(=O)N1)C(=O)O [Compound 6] |  | not active |  |  |  |  |  |  | 
6 | N=C(N)NCCC[C@H](NC(=O)[C@@H]1CSSC[C@@H]2NC(=O)[C@@H](NC(=O)CN)CSSC[C@H](NC(=O)[C@@H](CCCNC(=N)N)NC(=O)[C@@H]3CCCN3C(=O)[C@H](CC(=O)O)NC(=O)[C@H](CO)NC2=O)C(=O)N[C@@H](CCCNC(=N)N)C(=O)N[C@@H](Cc2ccc(O)cc2)C(=O)N[C@@H](CCCNC(=N)N)C(=O)N1)C(=O)O [Compound 7] |  | not active |  |  |  |  |  |  | 
7 | N=C(N)NCCC[C@H](NC(=O)[C@@H]1CSSC[C@@H]2NC(=O)[C@@H](NC(=O)CN)CSSC[C@H](NC(=O)[C@H](CCCNC(=N)N)NC(=O)[C@@H]3CCCN3C(=O)[C@H](CC(=O)O)NC(=O)[C@H](CO)NC2=O)C(=O)N[C@@H](CCCNC(=N)N)C(=O)N[C@@H](Cc2ccc(O)cc2)C(=O)N[C@H](CCCNC(=N)N)C(=O)N1)C(=O)O [Compound 11] |  | not active |  |  |  |  |  |  | 
8 | N=C(N)NCCC[C@@H]1NC(=O)[C@@H]2CSSC[C@H](NC(=O)CN)C(=O)N[C@@H](CSSC[C@@H](C(=O)N[C@H](CCCNC(=N)N)C(=O)O)NC(=O)[C@H](CCCNC(=N)N)NC(=O)[C@H](Cc3ccc(O)cc3)NC1=O)C(=O)N[C@@H](CO)C(=O)N[C@@H](CC(=O)O)C(=O)N1CCC[C@H]1C(=O)N[C@@H](CCCNC(=N)N)C(=O)N2 [Compound 13] | 97.2 ± 0.05% |  | inactive | inactive | inactive | 70 to 90% | inactive | inactive | 
9 | N=C(N)NCCC[C@@H](NC(=O)[C@@H]1CSSC[C@@H]2NC(=O)[C@@H](NC(=O)CN)CSSC[C@H](NC(=O)[C@@H](CCCNC(=N)N)NC(=O)[C@@H]3CCCN3C(=O)[C@H](CC(=O)O)NC(=O)[C@H](CO)NC2=O)C(=O)N[C@H](CCCNC(=N)N)C(=O)N[C@@H](Cc2ccc(O)cc2)C(=O)N[C@H](CCCNC(=N)N)C(=O)N1)C(=O)O [Compound 14] |  |  | inactive | inactive | inactive | 70 to 90% | inactive | inactive | inhibition of ACh-evoked current amplitude (rat α9α10 nAChR): did not inhibit
10 | N=C(N)NCCC[C@H]1NC(=O)[C@H](Cc2ccc(O)cc2)NC(=O)[C@@H](CCCNC(=N)N)NC(=O)[C@@H]2CSSC[C@H](NC(=O)CN)C(=O)N[C@@H](CSSC[C@@H](C(N)=O)NC1=O)C(=O)N[C@@H](CO)C(=O)N[C@@H](CC(=O)O)C(=O)N1CCC[C@H]1C(=O)N[C@H](CCCNC(=N)N)C(=O)N2 [Compound 15] (H-GCCSDP[dR]C[dR]Y[dR]C-NH2; disulfide 2-8, 3-12) |  |  | inactive | inactive | inactive | 70 to 90% | inactive | inactive | IC50 (rat α9α10 nAChR): 0.288 µM; inhibition of ACh-evoked current amplitude (rat α9α10 nAChR): did not inhibit; IC50 (human α9α10 nAChR): 0.68 µM
